# In ChEMBL document CHEMBL2401729, “Histone deacetylase inhibitors equipped with estrogen receptor modulation activity” (J Med Chem, 2013):
# Calls of active or inactive are those of the source. No cut-off for these calls is given here.
# Experiments:
# MDA-MB-231 = assay: Cytotoxicity against ERalpha and ERbeta-deficient human MDA-MB-231 cells assessed as growth inhibition after 72 hrs by MTT assay; format: functional, cell-based; settings: MDA-MB-231, 72 h
# [1] = target: Estrogen receptor beta (Homo sapiens) (UniProt Q92731); assay: Agonist activity at Gal4 DBD-fused human ERbeta LBD expressed in HEK293T cells at 10 uM after 40 hrs by luciferase reporter gene assay; format: cell-based; settings: HEK-293T
# Histone deacetylase 8 = target: T1, Histone deacetylase 8 (Homo sapiens, UniProt Q9BY41); assay: Inhibition of human recombinant HDAC8 after 30 mins by fluorescence assay
# T1 sequence (Q9BY41 whole entry): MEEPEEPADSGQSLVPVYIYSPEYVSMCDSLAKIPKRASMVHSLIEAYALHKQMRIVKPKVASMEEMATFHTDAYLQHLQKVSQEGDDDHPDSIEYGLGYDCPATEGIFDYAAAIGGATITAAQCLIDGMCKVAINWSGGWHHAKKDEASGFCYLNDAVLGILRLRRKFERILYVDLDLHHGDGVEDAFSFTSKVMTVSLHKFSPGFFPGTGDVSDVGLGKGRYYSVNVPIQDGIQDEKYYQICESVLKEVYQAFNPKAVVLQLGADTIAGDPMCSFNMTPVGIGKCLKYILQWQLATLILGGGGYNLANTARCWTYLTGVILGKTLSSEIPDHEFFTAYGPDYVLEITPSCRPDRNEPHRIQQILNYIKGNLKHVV
# [2] = target: T2, Protein deacetylase HDAC6 (Homo sapiens, UniProt Q9UBN7); assay: Inhibition of human recombinant HDAC6 after 30 mins by fluorescence assay
# T2 sequence (Q9UBN7 whole entry): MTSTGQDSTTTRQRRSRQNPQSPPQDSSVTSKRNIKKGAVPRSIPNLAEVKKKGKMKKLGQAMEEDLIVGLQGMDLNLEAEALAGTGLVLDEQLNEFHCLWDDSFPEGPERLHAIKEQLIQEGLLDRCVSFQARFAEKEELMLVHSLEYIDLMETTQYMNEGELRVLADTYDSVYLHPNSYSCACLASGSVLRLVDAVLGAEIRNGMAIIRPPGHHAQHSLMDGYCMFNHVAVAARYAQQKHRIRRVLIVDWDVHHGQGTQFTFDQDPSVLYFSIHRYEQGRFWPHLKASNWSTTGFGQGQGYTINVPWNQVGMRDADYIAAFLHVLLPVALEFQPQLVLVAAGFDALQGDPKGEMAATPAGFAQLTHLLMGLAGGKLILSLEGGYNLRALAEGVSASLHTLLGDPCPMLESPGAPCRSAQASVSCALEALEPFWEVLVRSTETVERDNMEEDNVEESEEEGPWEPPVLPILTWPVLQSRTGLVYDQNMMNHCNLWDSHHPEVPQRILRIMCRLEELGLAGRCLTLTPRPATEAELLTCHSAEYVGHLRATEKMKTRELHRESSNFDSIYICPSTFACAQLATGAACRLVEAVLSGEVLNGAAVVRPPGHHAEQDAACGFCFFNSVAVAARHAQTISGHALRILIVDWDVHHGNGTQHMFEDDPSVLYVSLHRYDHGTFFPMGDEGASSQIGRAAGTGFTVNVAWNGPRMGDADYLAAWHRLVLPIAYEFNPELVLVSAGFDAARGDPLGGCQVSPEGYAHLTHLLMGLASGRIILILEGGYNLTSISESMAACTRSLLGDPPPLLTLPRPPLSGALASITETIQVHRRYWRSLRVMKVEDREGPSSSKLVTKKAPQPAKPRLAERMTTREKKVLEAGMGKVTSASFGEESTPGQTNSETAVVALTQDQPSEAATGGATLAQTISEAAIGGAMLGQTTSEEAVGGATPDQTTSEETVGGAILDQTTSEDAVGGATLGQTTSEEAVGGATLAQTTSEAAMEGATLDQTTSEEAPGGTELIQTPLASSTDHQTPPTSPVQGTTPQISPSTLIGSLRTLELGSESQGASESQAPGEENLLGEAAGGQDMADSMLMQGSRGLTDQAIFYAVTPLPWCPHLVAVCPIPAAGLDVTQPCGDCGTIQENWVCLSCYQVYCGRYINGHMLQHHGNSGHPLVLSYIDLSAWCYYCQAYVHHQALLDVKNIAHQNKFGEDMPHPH
# Histone deacetylase 1 = Histone deacetylase 1 (Homo sapiens, UniProt Q13547); assay: Inhibition of human recombinant HDAC1 after 30 mins by fluorescence assay
# DU-145 = assay: Cytotoxicity against ERalpha-deficient human DU145 cells expressing ERbeta assessed as growth inhibition after 72 hrs by MTT assay; format: functional, cell-based; settings: DU-145, 72 h
# MCF7 [3] = assay: Cytotoxicity against human MCF7 cells expressing ERalpha and ERbeta assessed as growth inhibition after 72 hrs by MTT assay; format: functional, cell-based; settings: MCF7, 72 h
# Vero = assay: Cytotoxicity against african green monkey Vero cells assessed as growth inhibition after 72 hrs by MTT assay; format: ADME, cell-based; settings: Chlorocebus sabaeus
# [4] = Therapeutic index, ratio of IC50 for african green monkey Vero cells to IC50 for human MCF7 cells expressing ERalpha and ERbeta; settings: Vero cells versus MCF7 cells expressing ERalpha and ERbeta
# Estrogen receptor = target: T3, Estrogen receptor (Homo sapiens, UniProt P03372); assay: Antagonist activity at Gal4 DBD-fused human ERalpha LBD expressed in HEK293T cells assessed as inhibition of estradiol-induced transcriptional activation after 20 hrs by luciferase reporter gene assay; format: cell-based, HEK-293T
# T3 sequence (P03372 whole entry): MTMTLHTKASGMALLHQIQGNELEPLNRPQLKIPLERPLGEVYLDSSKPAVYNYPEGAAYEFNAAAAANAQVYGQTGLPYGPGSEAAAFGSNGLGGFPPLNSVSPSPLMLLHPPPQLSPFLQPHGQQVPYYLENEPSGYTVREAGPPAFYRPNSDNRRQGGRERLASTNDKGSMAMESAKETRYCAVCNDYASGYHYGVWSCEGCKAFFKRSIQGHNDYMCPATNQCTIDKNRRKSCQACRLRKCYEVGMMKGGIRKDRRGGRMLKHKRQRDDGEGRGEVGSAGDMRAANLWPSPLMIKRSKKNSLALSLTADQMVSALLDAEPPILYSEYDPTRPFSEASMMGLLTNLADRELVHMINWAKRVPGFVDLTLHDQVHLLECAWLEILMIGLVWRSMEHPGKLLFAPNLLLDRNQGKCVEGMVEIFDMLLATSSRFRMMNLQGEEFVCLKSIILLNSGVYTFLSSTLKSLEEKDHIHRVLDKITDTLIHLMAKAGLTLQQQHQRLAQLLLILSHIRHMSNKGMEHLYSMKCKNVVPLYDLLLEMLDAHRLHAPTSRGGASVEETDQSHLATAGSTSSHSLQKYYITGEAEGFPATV
# MCF7 [5] = assay: Ratio of tamoxifen IC50 to compound IC50 for human MCF7 cells expressing ERalpha and ERbeta; format: functional
# Histone deacetylase 1, sequence (Q13547 whole entry): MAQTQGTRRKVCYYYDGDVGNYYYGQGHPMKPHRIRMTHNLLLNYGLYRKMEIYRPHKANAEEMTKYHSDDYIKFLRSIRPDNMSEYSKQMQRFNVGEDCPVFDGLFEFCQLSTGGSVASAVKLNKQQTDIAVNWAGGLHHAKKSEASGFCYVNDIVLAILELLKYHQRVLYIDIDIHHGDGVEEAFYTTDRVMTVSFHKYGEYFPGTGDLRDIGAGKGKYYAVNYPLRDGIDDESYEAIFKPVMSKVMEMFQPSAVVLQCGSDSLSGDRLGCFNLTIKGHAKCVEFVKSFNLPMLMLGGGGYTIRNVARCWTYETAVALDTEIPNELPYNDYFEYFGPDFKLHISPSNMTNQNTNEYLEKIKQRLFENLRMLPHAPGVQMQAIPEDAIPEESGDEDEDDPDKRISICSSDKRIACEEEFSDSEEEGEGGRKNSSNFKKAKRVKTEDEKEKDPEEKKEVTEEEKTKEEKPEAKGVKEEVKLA
# Estrogen receptor beta (Homo sapiens), sequence (Q92731 whole entry, the tested form may be a part): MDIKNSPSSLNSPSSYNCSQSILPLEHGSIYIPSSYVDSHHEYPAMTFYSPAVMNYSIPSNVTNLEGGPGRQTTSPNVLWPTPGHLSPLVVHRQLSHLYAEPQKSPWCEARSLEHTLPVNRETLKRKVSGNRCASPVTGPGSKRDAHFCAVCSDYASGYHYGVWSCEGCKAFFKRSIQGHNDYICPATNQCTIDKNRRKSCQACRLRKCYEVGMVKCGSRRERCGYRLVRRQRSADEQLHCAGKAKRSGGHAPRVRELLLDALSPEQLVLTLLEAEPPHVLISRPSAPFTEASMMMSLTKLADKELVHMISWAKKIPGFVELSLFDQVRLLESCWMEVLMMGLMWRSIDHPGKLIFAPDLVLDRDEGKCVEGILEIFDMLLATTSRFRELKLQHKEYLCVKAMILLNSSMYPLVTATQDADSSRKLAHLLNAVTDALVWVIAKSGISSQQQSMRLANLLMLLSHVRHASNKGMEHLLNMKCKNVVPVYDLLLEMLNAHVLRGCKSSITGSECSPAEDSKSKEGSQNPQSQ
SMILES,IC50 (MDA-MB-231) [µM],Activity [1],IC50 (Histone deacetylase 8) [µM],IC50 [2] [µM],IC50 (Histone deacetylase 1) [µM],IC50 (DU-145) [µM],IC50 (MCF7 [3]) [µM],IC50 (Vero) [µM],selectivity ratio [4],IC50 (Estrogen receptor) [µM],Ratio IC50 (MCF7 [5])
C[C@]12CC[C@@H]3c4ccc(O)cc4CC[C@H]3[C@@H]1CC[C@@]2(O)c1cn(CCCCCC(=O)NO)nn1,22.6,Active,4,0.032,0.075,26.9,–,–,–,–,–
CC/C(=C(\c1ccccc1)c1ccc(OCCN(C)C)cc1)c1ccccc1 [TAMOXIFEN],17,–,–,–,–,–,15.6,15.9,–,–,–
C[C@]12CC[C@@H]3c4ccc(O)cc4CC[C@H]3[C@@H]1CC[C@@]2(O)c1cn(CCCCC(=O)NO)nn1,–,Active,5,0.14,0.4,–,–,–,–,–,–
C[C@]12CC[C@@H]3c4ccc(O)cc4CC[C@H]3[C@@H]1CC[C@@]2(O)c1cn(CCCC(=O)NO)nn1,28.4,Active,11,0.008,0.015,–,22,–,> 1.82,–,–
CC(O)(CS(=O)(=O)c1ccc(F)cc1)C(=O)Nc1ccc(C#N)c(C(F)(F)F)c1 (configuration not stated) [BICALUTAMIDE],–,–,–,–,–,18,–,–,–,–,–
C[C@]12CC[C@@H]3c4ccc(O)cc4CC[C@H]3[C@@H]1CC[C@@]2(O)c1cn(CCCCCCCC(=O)NO)nn1,33.9,Active,20,1.3,9,–,–,–,–,–,–
C[C@]12CC[C@@H]3c4ccc(O)cc4CC[C@H]3[C@@H]1CC[C@@]2(O)c1cn(CCCCCCC(=O)NO)nn1,14.1,Active,0.45,0.013,0.028,27,37.3,–,–,–,–
CC/C(=C(\c1ccccc1)c1ccc(OCCN(C)Cc2ccc(NC(=O)CCCCCCC(=O)NO)cc2)cc1)c1ccccc1,8.1,–,–,0.221,2.7,14.1,3.8,3.6,0.95,0.127,4
C#C[C@]1(O)CC[C@H]2[C@@H]3CCc4cc(O)ccc4[C@H]3CC[C@@]21C [ETHINYL ESTRADIOL],32.9,–,–,–,–,–,–,–,–,–,–
CC/C(=C(\c1ccccc1)c1ccc(OCCN(C)Cc2ccc(-c3cn(CCCCCC(=O)NO)nn3)cc2)cc1)c1ccccc1,10,–,–,0.567,0.524,20.6,7.2,9.1,1.26,0.248,2
